Measured values as given in patent US20040038369A1, “Airway-specific trypsin-like enzymes and method of using the same” (priority 2000, published 2004).

Assays:
NCI-H292 cells = assay: AB-PAS staining of mucus glycoprotein in NCI-H292 cells; assay type: cell-based, human; conditions: FIG. 1 and 2
Protocol: (§1) NCI-H292 cells (human pulmonary mucoepidermoid tumor cell strain, purchased from ATCC) were suspended in 10% FCS (Fetal Calf Serum)-containing RPMI-1640 (produced by Gibco Corp.), sowed on a Lab-Tek 8 well chamber slide (produced by Nunc Corp.) in a density of 6.0×10^4 cells/cm^2, cultured for 72 hours, subjected to the replacement of the culture solution by RPMI-1640 containing 0.1% of BSA, and further cultured for 24 hours.
On the day of the treatment, the culture solution of each well was replaced by RPMI-1640 (containing 0.1% BSA) containing EGF (5 ng/mL, produced by Becton Dickinson Corp.), HB-EGF (5 ng/mL, produced by R & D Corp.), TGF-α (5 ng/mL, produced by Peprotech Corp.), or PBS to start the treatment. Then, the cells were incubated at 37° C. for 24 hours.
After the prescribed 24 hours treatment, the culture supernatant was removed. The residue was once washed with PBS, mixed with 4% paraformaldehyde/PBS, and then allowed to stand at room temperature for one hour to immobilize the cells. The immobilized cells were twice washed with Milli Q water and then stained with AB-PAS. The staining was carried out according to a book (“All of new dyeing methods” p136-150 (Iyaku Shuppansha)). After staining, the cells were sequentially immersed in 70, 80, and 100% ethanol for five minutes, respectively, to remove water, sealed in an Aquatex (produced by Merck Corp.), and then subjected to the observation of the staining image with an optical microscope. From the results, it was clarified that all of HAST, TGF-α, EGF, and HB-EGF promoted the production of the mucus glycoprotein.
as §1, with “(purchased” for “(human pulmonary mucoepidermoid tumor cell strain, purchased”, “FCS-containing” for “FCS (Fetal Calf Serum)-containing”, “hours. […]” for “hours.”

[1] = test system: EGF on surface of H292 cell membrane; assay: Surface antigen analysis (FACS) of EGF on NCI-H292 cell membrane; assay type: cell-based, human; conditions: HAST 300 mU/mL + inhibitor (leupeptin 10 μM, BB1101 5 μM); PBS 10.79, HAST alone 8.33
Protocol: (§2) NCI-H292 cells (purchased from ATCC) were cultured on a 10 cm dish in 10% FCS-containing RPMI-1640 until to reach a confluent state, subjected to the replacement of the culture medium by RPMI-1640 containing 0.1% of BSA, and further cultured for 24 hours. The cultured cells were washed with PBS, treated and floated in PBS containing 5 mM of EDTA at 37° C. for five minutes, and then suspended in 0.1%BSA-containing RPMI-1640 in a density of 1.0×10^7 cells/mL.
(§3) The above-described cell suspension and 0.1% BSA-containing RPMI-1640 containing HAST in a double concentration (600 mU/mL) were mixed with each other in equivalent amounts, respectively, and reacted with each other at 37° C. for 30 minutes (final cell concentration: 5.0×10^6 cells/mL, final HAST concentration: 300 mU/mL). The reaction solution was mixed with ice-cooled 1% FCS-containing PBS in a volume of 5 times that of the reaction solution to stop the reaction, and the treated solution was then supplied for a surface antigen analysis.
(§4) The cells subjected to the prescribed treatments were suspended in 1% FCS-containing PBS in a density of 1.0×10^7 cells/mL. 100 μL of the prepared cell suspension was mixed with a primary antigen (EGF back ground dyeing: 1 μg of normal mouse IgG1 (produced by R & D Corp.), EGF dyeing: 1 μg of an anti-EGF mouse monoclonal antibody (produced by R & D Corp.), HB-EGF back ground dyeing: free from the primary antigen, HB-EGF dyeing: 2 μg of an anti-HB-EGF goat polyclonal antibody (produced by R & D Corp.)) and reacted on ice for 30 minutes. The reaction product was once washed with 5 mL of 1% FCS-containing PBS, mixed with 2 μg of a secondary antigen (EGF back ground dyeing and EGF dyeing: FITC conjugated F(ab′)2 fragment to mouse IgG (produced by Dako Corp.), HB-EGF back ground dyeing and HB-EGF dyeing: Swine Anti-Goat Ig's Fluorescein Conjugate (produced by KPL Corp.)), and then reacted on ice for 30 minutes. The reaction solution was once washed with 5 mL of 1% FCS-containing PBS, and then mixed with Cell Fix (produced by Becton Dickinson Corp.) to immobilize the cells. The expression of the surface antigen was assayed with FACS Calibur (produced by Becton Dickinson Corp.) and analyzed with Cell Quest (produced by Becton Dickinson Corp.). Average fluorescence intensities were shown in the next table as the indicators of expression intensities.
(§5) HAST (600 mU/mL) was reacted with leupeptin (10 μM) or BB1101 (5 μM) in 0.1% BSA-containing RPMI-1640 on ice for 30 minutes, and the reaction solution was mixed with the equivalent amount of a cell suspension preliminarily treated with leupeptin (10 μM) or BB1101 (5 μM) at 37° C. for 30 minutes, and further treated at 37° C. for 30 minutes (final HAST concentration: 300 mU/mL, final leupeptin concentration: 10 μM, final BB1101 concentration: 5 μM, final cell concentration: 5.0×10^6 cells/mL). The reaction solution was mixed with ice-cooled 1% FCS-containing PBS in an amount of five times that of the reaction solution to stop the reaction, and then supplied for the surface antigen analysis.
(§6) The cells subjected to the prescribed treatments were suspended in 1% FCS-containing PBS in a density of 1.0×10^7 cells/mL. […]

[2] = test system: HB-EGF on surface of H292 cell membrane; assay: Surface antigen analysis (FACS) of HB-EGF on NCI-H292 cell membrane; assay type: cell-based, human; conditions: HAST 300 mU/mL + inhibitor (leupeptin 10 μM, BB1101 5 μM); PBS 8.61, HAST alone 6.26
Protocol: as §2, §3, §4, §5, §6

PAR-2 = molecular target: T1, PAR-2 (Homo sapiens, UniProt P55085); assay: Calcium influx in PAR-2-expressing insect cells; assay type: cell-based; conditions: AST 2 units/mL; trypsin, thrombin 0.1 to 10 units/mL; SFLLRNamide, SLIGRL 10 to 100 μM
T1 construct: expressed in transfected cells; host or cells: Sf9 insect cells infected with recombinant baculovirus VL-PAR (pVL1393)
T1 sequence (P55085 26-397): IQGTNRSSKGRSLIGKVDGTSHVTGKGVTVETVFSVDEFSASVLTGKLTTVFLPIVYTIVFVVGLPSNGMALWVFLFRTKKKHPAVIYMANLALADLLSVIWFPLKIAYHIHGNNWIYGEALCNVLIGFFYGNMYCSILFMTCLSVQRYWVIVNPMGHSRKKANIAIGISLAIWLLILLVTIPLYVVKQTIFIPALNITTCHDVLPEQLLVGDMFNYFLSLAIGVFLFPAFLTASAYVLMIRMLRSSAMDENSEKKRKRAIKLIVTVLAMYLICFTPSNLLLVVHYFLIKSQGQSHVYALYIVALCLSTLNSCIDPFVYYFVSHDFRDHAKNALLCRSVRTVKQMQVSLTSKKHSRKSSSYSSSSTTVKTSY
Protocol: (§7) The above-obtained recombinant baculovirus VL-PAR for expressing the PAR was used to infect 1.0×10^7 Sf9 cells sowed on a 75 cm^2 flask at an MOI=2, and was then left and stationally cultured at 27° C. for 40 hours. After the culture, the infected cells were recovered and then subjected to a calcium influx experiment to-confirm the function of the PAR.
(§8) The recovered infected cells (about 5×10^6 cells) were once washed with HEPES-Tyrode buffer solution-Ca^2+ (−) pH 7.4, and then suspended in 5 mL of HEPES-Tyrode buffer solution (containing Fura2-AM, 1 μg/mL) to load the Fura2-AM on the cells at 27° C. for 30 minutes. The suspension was centrifuged at 800 rpm at room temperature for 5 minutes to recover the cells. The cells were twice washed with HEPES-Tyrode buffer solution-Ca^2+ (−) pH 7.4 and then resuspended in 5 mL of HEPES-Tyrode buffer solution-Ca^2+ (−) pH 7.4. The cell suspension was mixed with 5 μL of 1M CaCl2 to give a final concentration of 1 mM CaCl2, and then incubated in a shaded state at room temperature for 5 minutes. The prepared Fura2-AM-loaded infected cells were dispensed into a 96 well plate in a volume of 100 μL/well, further subjected to the dispensation of HEPES-Tyrode buffer solution-C^2+ (+) pH 7.4 in a volume of 80 μL/well, and then assayed with a Fluorescence Drug Screening System (made by Hamamatsu Photonics Co.). Namely, [intensity of 500 nm fluorescent light due to 340 nm exciting light]/[intensity of 500 nm fluorescent light due to 380 nm exciting light] (reflecting the concentration of calcium in the cells) was assayed.

PAR-4 = molecular target: T2, PAR-4 (Homo sapiens, UniProt Q96RI0); assay: Calcium influx in PAR-4-expressing insect cells; assay type: cell-based; conditions: AST 2 units/ml; trypsin, thrombin 0.1 to 10 units/mL
T2 construct: expressed in transfected cells; host or cells: Sf9 insect cells infected with recombinant baculovirus VL-PAR (pVL1393)
T2 sequence (Q96RI0 18-385): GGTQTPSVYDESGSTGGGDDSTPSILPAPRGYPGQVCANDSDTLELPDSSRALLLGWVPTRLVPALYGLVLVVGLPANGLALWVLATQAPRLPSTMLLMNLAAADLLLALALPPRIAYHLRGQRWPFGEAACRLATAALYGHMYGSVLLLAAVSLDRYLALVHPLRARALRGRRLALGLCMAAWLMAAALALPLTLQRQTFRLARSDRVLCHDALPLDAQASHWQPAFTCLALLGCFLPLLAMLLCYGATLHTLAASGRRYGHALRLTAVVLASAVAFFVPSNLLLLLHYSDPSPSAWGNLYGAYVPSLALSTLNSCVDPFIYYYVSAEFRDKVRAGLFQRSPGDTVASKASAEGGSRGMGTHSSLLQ
Protocol: as §7
as §8, with “Namely, [intensity of 500 nm fluorescent light due to 340 nm exciting light]/[intensity of 500 nm fluorescent light due to 380 nm exciting light] (reflecting the concentration of calcium in the cells) was assayed.” left out

PAR-1 = molecular target: T3, PAR-1 (Homo sapiens, UniProt P25116); assay: Calcium influx in PAR-1-expressing insect cells; assay type: cell-based; conditions: AST 2 units/mL; trypsin, thrombin 0.1 to 10 units/mL; SFLLRNamide 10 to 100 μM
T3 construct: expressed in transfected cells; host or cells: Sf9 insect cells infected with recombinant baculovirus VL-PAR (pVL1393)
T3 sequence (P25116 22-425): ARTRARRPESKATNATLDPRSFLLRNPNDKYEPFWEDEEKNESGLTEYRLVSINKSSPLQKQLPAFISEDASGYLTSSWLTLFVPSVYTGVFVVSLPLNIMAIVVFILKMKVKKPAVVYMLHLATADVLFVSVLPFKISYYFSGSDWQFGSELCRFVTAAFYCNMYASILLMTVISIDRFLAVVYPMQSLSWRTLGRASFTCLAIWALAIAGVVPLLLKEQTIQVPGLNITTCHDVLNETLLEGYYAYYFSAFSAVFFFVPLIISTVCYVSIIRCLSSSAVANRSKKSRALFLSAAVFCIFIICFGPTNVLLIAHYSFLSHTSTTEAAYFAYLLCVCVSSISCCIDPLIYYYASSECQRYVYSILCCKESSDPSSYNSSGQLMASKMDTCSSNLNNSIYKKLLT

Row | Molecule | production of the mucus glycoprotein (NCI-H292 cells) | EGF expression intensity on the surfaces of the cell membranes (average fluorescence intensity) [1] | HB-EGF expression intensity on the surfaces of the cell membranes (average fluorescence intensity) [2] | Ca2+ influx (PAR-2) | further results
1 | HB-EGF: Heparin-binding EGF-like Growth Factor, EGFR ligand, produced by R & D Corp. [reference compound] | promoted |  |  |  | 
2 | C=CC[C@H](C(=O)NO)[C@@H](CC(C)C)C(=O)N[C@@H](Cc1ccccc1)C(=O)NC [BB01, reference compound] |  | 7.49 | 6.65 |  | 
3 | CC(=O)N[C@@H](CC(C)C)C(=O)N[C@@H](CC(C)C)C(=O)N[C@H](C=O)CCCNC(=N)N [leupeptin, reference compound] |  | 10.18 | 7.3 |  | 
4 | SLIGRL [agonist peptide for PAR-2] |  |  |  | observed | 
5 | TGF-α: Transforming Growth Factor-α, EGFR ligand, produced by Peprotech Corp. [reference compound] | promoted |  |  |  | 
6 | thrombin [reference compound] |  |  |  | observed | Ca2+ influx (PAR-4): observed; Ca2+ influx (PAR-1): observed
